These results are taken from publication PMC9781827, “Isolation and Identification of Anti-Inflammatory Peptide from Goose Blood Hydrolysate to Ameliorate LPS-Mediated Inflammation and Oxidative Stress in RAW264.7 Macrophages” (Molecules, 2022).

Ends that are not written are not given here.

In data set [1] the target is T1, pepsin (Sus scrofa, UniProt P00791).
T1 construct: purchased Shanghai Aladdin Biochemical Technology Co., Ltd; host or cells: porcine gastric mucosa
Put plainly: Simulated gastric digestion with pepsin, products analysed by LC–MS/MS. The format is in vitro ADME, porcine. Conditions: 37 °C. The protocol: (§1) The fractionation of the peak with the highest anti-inflammatory activity obtained from RP-LC was further identified by LC-MS/MS equipped with a reversed phase BEH C18 analytical column (1.7 μm, 2.1 × 100 mm, Waters Inc., Milford, MA, USA). The fraction of peptide with the highest anti-inflammatory activity obtained from RP-LC was further Identified by LC-MS/MS. Eluent A: 0.065% TFA in 2% acetonitrile; Eluent B: 0.050% TFA in 80% acetonitrile. The gradient elution parameters: 0–30 min, 100% eluent A; 30–60 min, 30–80% eluent B; 60–80 min, 100% eluent A. The above flow rates were 0.5 mL/min. The fractions were detected at 280 nm by an ultraviolet detector. The flow entered directly into the MS/MS system (MALDI SYNAPT Q-TOF MS, Waters, Inc. Milford, MA, USA) for multiple reaction measurement. The recording mass range of precursor ions was m/z 50–4000. Nitrogen was used as a collision gas. Capillary voltage was set at 3.5 kV and cone voltage at 20 V. Source block temperature was set at 100 °C and desolvation temperature at 250 °C. Collision energy and detector voltage were 15 and 1600 V, respectively. The desolvation and cone gas flow were 500 and 50 L/h, respectively. The N-terminal fragment ion series (B series) and the C-terminal fragment ion series (Y series) were analysed. The amino acid sequence of the peptide was obtained by comprehensive analysis of B and Y ion series through Mass Lynx V4.1 operating system.
(§2) The stability of GBP in response to pepsin and trypsin in the simulation of GI digestion in vitro was examined based on Xie et al.. First, 2 g of NaCl and 3.2 g of pepsin from porcine gastric mucosa (Purity: 1:3000, CAS: 9001-75-6, Shanghai Aladdin Biochemical Technology Co., Ltd., Shanghai, China) were added to 800 mL of ultrapure water. The pH of the solution was adjusted with 6 mol/L hydrochloric acid to 3.0, and the volume was adjusted with ultrapure water to 1 L (as simulated gastric juice). […]

The test system of data set [2] is T2, pepsin.
T2 construct: purchased Shanghai Aladdin Biochemical Technology Co., Ltd; host or cells: porcine gastric mucosa
The description is as above. The format is in vitro ADME, porcine. The note with it: pig, simulated gastric fluid; simulated gastric juice (pepsin from porcine gastric mucosa, NaCl), pH 3.0, 200 μg/mL peptide, 2 h, 37 °C; LC–MS/MS; read-out: share of IVYPWTQR split into smaller fragments after pepsin treatment. As for the experimental part:
as §1, §2

The target in data set [3] is T3, trypsin (Sus scrofa, UniProt P00761).
T3 construct: purchased Shanghai Aladdin Biochemical Technology Co., Ltd; host or cells: porcine pancreas
Put plainly: Simulated intestinal digestion with trypsin. The format is in vitro ADME. The note with it: simulated intestinal fluid (trypsin from porcine pancreas, bile salt), pH 7.6, 2 h, 37 °C, after pepsin step; judged by unchanged cytokine levels. The protocol:
The stability of GBP in response to pepsin and trypsin in the simulation of GI digestion in vitro was examined based on Xie et al.. First, 2 g of NaCl and 3.2 g of pepsin from porcine gastric mucosa (Purity: 1:3000, CAS: 9001-75-6, Shanghai Aladdin Biochemical Technology Co., Ltd., Shanghai, China) were added to 800 mL of ultrapure water. The pH of the solution was adjusted with 6 mol/L hydrochloric acid to 3.0, and the volume was adjusted with ultrapure water to 1 L (as simulated gastric juice). Then, 0.68 g of potassium dihydrogen phosphate and 7.7 mL sodium hydroxide solution (0.2 mol/L) were dissolved in 70 mL of ultrapure water; 1 g of trypsin from porcine pancreas (Purity: ≥250 units/mg, CAS: […], Shanghai Aladdin Biochemical Technology Co., Ltd., Shanghai, China) and 6 g of bile salt were added and dissolved. The above solution was mixed and supplemented with ultrapure water to 1 L. Finally, the pH of the mixed solution was adjusted to 7.6 with sodium hydroxide solution (0.2 mol/L) (as simulated intestinal fluid). The 200 μg/mL peptide solution was adjusted to a pH of 3.0 with a 1 mol/L HCl solution, and 5 mL of simulated gastric juice was added to the solution and the reaction was carried out for 2 h in 37 °C water bath. Then, the simulated gastric digestion was terminated by being heated at 100 °C for 10 min. […]

T1 sequence (P00791 60-385): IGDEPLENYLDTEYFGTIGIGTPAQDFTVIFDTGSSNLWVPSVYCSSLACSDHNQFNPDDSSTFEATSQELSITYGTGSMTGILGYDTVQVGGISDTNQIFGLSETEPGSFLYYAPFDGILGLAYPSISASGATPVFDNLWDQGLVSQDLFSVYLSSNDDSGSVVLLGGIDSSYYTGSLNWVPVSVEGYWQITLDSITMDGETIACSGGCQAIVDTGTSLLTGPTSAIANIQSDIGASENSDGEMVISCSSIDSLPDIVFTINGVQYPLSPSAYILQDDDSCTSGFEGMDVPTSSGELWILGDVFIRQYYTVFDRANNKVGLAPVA
T3 sequence (P00761 9-231): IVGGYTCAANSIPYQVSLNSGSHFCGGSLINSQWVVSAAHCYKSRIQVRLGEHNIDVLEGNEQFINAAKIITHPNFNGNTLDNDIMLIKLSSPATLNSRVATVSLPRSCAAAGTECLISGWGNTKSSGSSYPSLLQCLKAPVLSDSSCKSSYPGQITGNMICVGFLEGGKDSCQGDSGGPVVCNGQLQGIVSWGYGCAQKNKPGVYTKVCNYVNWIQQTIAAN

Turning to “YPWTQR [fragment of IVYPWTQR after pepsin treatment]”, the “share of fragment formed from IVYPWTQR after pepsin treatment” value in data set [1] (simulated gastric juice (pepsin), pH 3.0, 200 μg/mL peptide, 2 h, LC–MS/MS) is on record as 25.19%.

Regarding “IVYPWTQR [IVYPWTQR, IIe-Val-Tyr-Pro-Trp-Thr-Gln-Arg]”, in data set [1] (simulated gastric digestion, pepsin, pH 3.0, 2 h), the stability against pepsin result is “sensitive to pepsin”. Further, the metabolised at 2 h, 200 μg/mL in data set [2] is ~45.2%. Besides, the stability against trypsin result in data set [3] was “robustly resists trypsin”.
